Patent publication US6737383B1, “Herbicidal oxadiazolidines” (priority 1999, dated 2004)

What was measured:
velvetleaf = test: Test B pre/postemergence velvetleaf; format: in vivo, Abutilon theophrasti; conditions: for Plant response rating, Velvetleaf: scale of 0 to 10 where 0 is no effect and 10 is complete control
Outline: (§1)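 Herbicidal effect was estimated by eye on a ten-point control scale after plants spent twelve to sixteen days in a greenhouse following soil or foliar treatment. Foliar sprays targeted plants at one to four leaves; all doses were formulated in a non-phytotoxic solvent with surfactant.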

morningglory = test: Test B pre/postemergence morningglory; format: in vivo, Ipomoea hederacea; conditions: for Plant response rating, Morningglory: scale of 0 to 10 where 0 is no effect and 10 is complete control
Outline: as §1

surinam grass = test: Test B pre/postemergence surinam grass; format: in vivo, Brachiaria decumbens
Outline: as §1

pigweed = test: Test B pre/postemergence pigweed; format: in vivo, Amaranthus retroflexus; conditions: for Plant response rating, Redroot pigweed: scale of 0 to 10 where 0 is no effect and 10 is complete control
Outline: as §1

giant foxtail = test: Test B pre/postemergence giant foxtail; format: in vivo, Setaria faberii
Outline: as §1

soybean = test: Test B pre/postemergence soybean; format: in vivo, Glycine max; conditions: for Plant response rating, Soybean: scale of 0 to 10 where 0 is no effect and 10 is complete control
Outline: as §1

bamyardgrass = test: Test B flood test barnyardgrass; format: in vivo, Echinochloa crus-galli
Outline: (§2)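 Read-out is a visual response score from 0 (no effect) to 10 (complete control), assigned by comparison with untreated controls. Treatment was applied at the 2-leaf stage, and plants stayed in the greenhouse for twelve to sixteen days before scoring.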

wheat = test: Test B pre/postemergence wheat; format: in vivo, Triticum aestivum; conditions: for Plant response rating, Wheat: scale of 0 to 10 where 0 is no effect and 10 is complete control
Outline: as §1

corn = test: Test B pre/postemergence corn; format: in vivo, Zea mays
Outline: as §1

blackgrass = test: Test B pre/postemergence blackgrass; format: in vivo, Alopecurus myosuroides
Outline: as §1

smallflower flatsedge = test: Test B flood test smallflower flatsedge; format: in vivo, Cyperus difformis
Outline: as §2

duck salad = test: Test B flood test duck salad; format: in vivo, Heteranthera limosa
Outline: as §2

crabgrass = test: Test B pre/postemergence crabgrass; format: in vivo, Digitaria sanguinalis
Outline: as §1

rape = test: Test B pre/postemergence rape; format: in vivo, Brassica napus; conditions: for Plant response rating, Rape: scale of 0 to 10 where 0 is no effect and 10 is complete control
Outline: as §1

wild oat = test: Test B pre/postemergence wild oat; format: in vivo, Avena fatua; conditions: for Plant response rating, Wild oats: scale of 0 to 10 where 0 is no effect and 10 is complete control
Outline: as §1

sugar beet = test: Test B pre/postemergence sugar beet; format: in vivo, Beta vulgaris; conditions: for Plant response rating, Sugarbeets: scale of 0 to 10 where 0 is no effect and 10 is complete control
Outline: as §1

purple nutsedge = test: Test B pre/postemergence purple nutsedge; format: in vivo, Cyperus rotundus; conditions: for Plant response rating, Nutsedge: scale of 0 to 10 where 0 is no effect and 10 is complete control
Outline: as §1

cocklebur = test: Test B pre/postemergence cocklebur; format: in vivo, Xanthium strumarium
Outline: as §1

rice = test: Test B flood test rice; format: in vivo, Oryza sativa
Method: At the same time, these crop and weed species were also treated with postemergence applications of test chemicals formulated in the same manner. Plants ranged in height from 2 to 18 cm (1- to 4-leaf stage) for postemergence treatments. Plant species in the flood test consisted of rice (Oryza sativa), smallflower flatsedge (Cyperus difformis), duck salad (Heteranthera limosa) and bamyardgrass (Echinochloa crus-galli) grown to the 2-leaf stage for testing. Treated plants and controls were maintained in a greenhouse for twelve to sixteen days, after which all species were compared to controls and visually evaluated. Plant response ratings, summarized in Table B, are based on a scale of 0 to 10 where 0 is no effect and 10 is complete control. A dash (−) response means no test result.

[1] = Postemergence, Rate 250 g/ha, scale 0 to 10
[2] = Preemergence, Rate 250 g/ha, scale 0 to 10, 0 is no effect, 10 is complete control
[3] = Preemergence, Rate 500 g/ha, scale 0 to 10, 0 is no effect, 10 is complete control
[4] = Rate 62 g/ha, Postemergence, scale 0 to 10 (0 no effect, 10 complete control)
[5] = Rate 125 g/ha, Postemergence, scale 0 to 10, 0 is no effect, 10 is complete control
[6] = Postemergence, Rate 500 g/ha, scale of 0 to 10 where 0 is no effect and 10 is complete control
[7] = Preemergence, Rate 62 g/ha, scale of 0 to 10 where 0 is no effect and 10 is complete control
[8] = Preemergence, Rate 125 g/ha, scale of 0 to 10 where 0 is no effect and 10 is complete control
[9] = Rate 62 g/ha, flood test species, Pre-emergence, visual evaluation after twelve to sixteen days
[10] = Rate 125 g/ha, under heading Pre-emergence, flood test species, visual evaluation after twelve to sixteen days
[11] = Rate 250 g/ha, Pre-emergence (flood test species), scale 0 to 10, 0 is no effect, 10 is complete control
[12] = Rate 500 g/ha, Pre-emergence, flood test species, scale 0 to 10 (0 no effect, 10 complete control)
[13] = Postemergence, Rate 62 g/ha, scale 0 to 10, 0 is no effect, 10 is complete control
[14] = Rate 125 g/ha, Postemergence section (flood test species), scale 0 to 10, 0 no effect, 10 complete control
[15] = Rate 500 g/ha, listed under Postemergence (flood test species), scale 0 to 10, 0 no effect, 10 complete control
[16] = flood test, listed under Postemergence, Rate 250 g/ha, scale 0 to 10, 0 no effect, 10 complete control

COC(OC)C(C)n1c(=O)on(C(=O)N(c2ccc(F)cc2F)C(C)C)c1=O (stereo not drawn) [Compound 472]
Velvetleaf plant response rating (velvetleaf; [1]): 2
Plant response rating, Velvetleaf (velvetleaf; Preemergence, Rate 62 g/ha): 1
Plant response rating, Velvetleaf (velvetleaf; Preemergence, Rate 125 g/ha): 3
Velvetleaf plant response rating (velvetleaf; [2]): 3
Velvetleaf plant response rating (velvetleaf; [3]): 7
Velvetleaf plant response rating (velvetleaf; [4]): 0
Velvetleaf plant response rating (velvetleaf; [5]): 0
Morningglory plant response rating (morningglory; [1]): 4
Plant response rating, Morningglory (morningglory; Preemergence, Rate 62 g/ha): 0
Plant response rating, Morningglory (morningglory; Preemergence, Rate 125 g/ha): 0
Morningglory plant response rating (morningglory; [2]): 0
Morningglory plant response rating (morningglory; [3]): 5
Morningglory plant response rating (morningglory; [4]): 3
Morningglory plant response rating (morningglory; [5]): 3
B. signalgrass plant response rating (surinam grass; Postemergence, Rate 250 g/ha, scale 0 to 10, 0 no effect, 10 complete control): 2
B. signalgrass plant response rating (surinam grass; [6]): 5
Plant response rating, B. signalgrass (surinam grass; [7]): 3
Plant response rating, B. signalgrass (surinam grass; [8]): 9
B. signalgrass plant response rating (surinam grass; [2]): 9
B. signalgrass plant response rating (surinam grass; [3]): 10
B. signalgrass plant response rating (surinam grass; [4]): 0
B. signalgrass plant response rating (surinam grass; [5]): 0
Redroot pigweed plant response rating (pigweed; [1]): 3
Plant response rating, Redroot pigweed (pigweed; Preemergence, Rate 62 g/ha): 10
Plant response rating, Redroot pigweed (pigweed; Preemergence, Rate 125 g/ha): 10
Redroot pigweed plant response rating (pigweed; [2]): 10
Redroot pigweed plant response rating (pigweed; [3]): 10
Redroot pigweed plant response rating (pigweed; [4]): 0
Redroot pigweed plant response rating (pigweed; [5]): 2
Giant foxtail plant response rating (giant foxtail; [1]): 8
Giant foxtail plant response rating (giant foxtail; [6]): 8
Plant response rating, Giant foxtail (giant foxtail; [7]): 10
Plant response rating, Giant foxtail (giant foxtail; [8]): 10
Giant foxtail plant response rating (giant foxtail; [2]): 10
Giant foxtail plant response rating (giant foxtail; [3]): 10
Giant foxtail plant response rating (giant foxtail; [4]): 7
Giant foxtail plant response rating (giant foxtail; [5]): 7
Soybean plant response rating (soybean; [1]): 2
Plant response rating, Soybean (soybean; Preemergence, Rate 62 g/ha): 0
Plant response rating, Soybean (soybean; Preemergence, Rate 125 g/ha): 0
Soybean plant response rating (soybean; [2]): 0
Soybean plant response rating (soybean; [3]): 3
Soybean plant response rating (soybean; [4]): 2
Soybean plant response rating (soybean; [5]): 2
Plant response rating, Barnyardgrass (0 to 10 scale, 0 is no effect, 10 is complete control) (bamyardgrass; [9]): 0
Barnyardgrass plant response rating (0 to 10 scale, 0 is no effect, 10 is complete control) (bamyardgrass; [10]): 0
Barnyardgrass plant response rating (bamyardgrass; [11]): 0
Barnyardgrass plant response rating (bamyardgrass; [12]): 0
Wheat plant response rating (wheat; [1]): 0
Plant response rating, Wheat (wheat; Preemergence, Rate 62 g/ha): 0
Plant response rating, Wheat (wheat; Preemergence, Rate 125 g/ha): 0
Wheat plant response rating (wheat; [2]): 0
Wheat plant response rating (wheat; [3]): 0
Wheat plant response rating (wheat; [4]): 0
Wheat plant response rating (wheat; [5]): 0
Corn plant response rating (corn; [1]): 0
Corn plant response rating (corn; [6]): 3
Plant response rating, Corn (corn; [7]): 0
Plant response rating, Corn (corn; [8]): 0
Corn plant response rating (corn; [2]): 2
Corn plant response rating (corn; [3]): 7
Corn plant response rating (corn; [4]): 0
Corn plant response rating (corn; [5]): 0
Blackgrass plant response rating (blackgrass; [1]): 2
Blackgrass plant response rating (blackgrass; [6]): 8
Plant response rating, Blackgrass (blackgrass; [7]): 9
Plant response rating, Blackgrass (blackgrass; [8]): 9
Blackgrass plant response rating (blackgrass; [2]): 10
Blackgrass plant response rating (blackgrass; [3]): 10
Blackgrass plant response rating (blackgrass; [4]): 0
Blackgrass plant response rating (blackgrass; [5]): 0
Plant response rating, S. Flatsedge (0 to 10 scale, 0 is no effect, 10 is complete control) (smallflower flatsedge; [9]): 0
S. Flatsedge plant response rating (0 to 10 scale, 0 is no effect, 10 is complete control) (smallflower flatsedge; [10]): 0
S. Flatsedge plant response rating (smallflower flatsedge; [11]): 0
S. Flatsedge plant response rating (smallflower flatsedge; [12]): 0
Plant response rating, Ducksalad (0 to 10 scale, 0 is no effect, 10 is complete control) (duck salad; [9]): 0
Ducksalad plant response rating (0 to 10 scale, 0 is no effect, 10 is complete control) (duck salad; [10]): 0
Ducksalad plant response rating (duck salad; [11]): 0
Ducksalad plant response rating (duck salad; [12]): 0
Crabgrass plant response rating (crabgrass; [1]): 8
Crabgrass plant response rating (crabgrass; [6]): 8
Plant response rating, Crabgrass (crabgrass; [7]): 9
Plant response rating, Crabgrass (crabgrass; [8]): 9
Crabgrass plant response rating (crabgrass; [2]): 10
Crabgrass plant response rating (crabgrass; [3]): 10
Crabgrass plant response rating (crabgrass; [4]): 7
Crabgrass plant response rating (crabgrass; [5]): 7
Rape plant response rating (rape; [1]): 0
Plant response rating, Rape (rape; Preemergence, Rate 62 g/ha): 0
Plant response rating, Rape (rape; Preemergence, Rate 125 g/ha): 0
Rape plant response rating (rape; [2]): 0
Rape plant response rating (rape; [3]): 4
Rape plant response rating (rape; [4]): 0
Rape plant response rating (rape; [5]): 0
Wild oats plant response rating (wild oat; [1]): 0
Plant response rating, Wild oats (wild oat; Preemergence, Rate 62 g/ha): 2
Plant response rating, Wild oats (wild oat; Preemergence, Rate 125 g/ha): 5
Wild oats plant response rating (wild oat; [2]): 8
Wild oats plant response rating (wild oat; [3]): 10
Wild oats plant response rating (wild oat; [4]): 0
Wild oats plant response rating (wild oat; [5]): 0
Sugarbeets plant response rating (sugar beet; [1]): 0
Plant response rating, Sugarbeets (sugar beet; Preemergence, Rate 62 g/ha): 1
Plant response rating, Sugarbeets (sugar beet; Preemergence, Rate 125 g/ha): 2
Sugarbeets plant response rating (sugar beet; [2]): 3
Sugarbeets plant response rating (sugar beet; [3]): 6
Sugarbeets plant response rating (sugar beet; [4]): 0
Sugarbeets plant response rating (sugar beet; [5]): 0
Nutsedge plant response rating (purple nutsedge; [1]): 0
Plant response rating, Nutsedge (purple nutsedge; Preemergence, Rate 62 g/ha): 0
Plant response rating, Nutsedge (purple nutsedge; Preemergence, Rate 125 g/ha): 0
Nutsedge plant response rating (purple nutsedge; [2]): 0
Nutsedge plant response rating (purple nutsedge; [3]): 10
Nutsedge plant response rating (purple nutsedge; [4]): 0
Nutsedge plant response rating (purple nutsedge; [5]): 0
Cocklebur plant response rating (cocklebur; [1]): 0
Cocklebur plant response rating (cocklebur; [6]): 1
Plant response rating, Cocklebur (cocklebur; [7]): 0
Plant response rating, Cocklebur (cocklebur; [8]): 0
Cocklebur plant response rating (cocklebur; [2]): 0
Cocklebur plant response rating (cocklebur; [3]): 2
Cocklebur plant response rating (cocklebur; [4]): 0
Cocklebur plant response rating (cocklebur; [5]): 0
Plant response rating, Rice (0 to 10 scale, 0 is no effect, 10 is complete control) (rice; [9]): 0
Rice plant response rating (0 to 10 scale, 0 is no effect, 10 is complete control) (rice; [10]): 0
Rice plant response rating (rice; [11]): 0
Rice plant response rating (rice; [12]): 0

Cc1ccccc1-n1c(=O)on(C(=O)N(c2ccc(F)cc2F)C2CC2)c1=O [Compound 50]
Barnyardgrass plant response rating (bamyardgrass; [13]): 0
Barnyardgrass plant response rating (bamyardgrass; [14]): 0
Barnyardgrass plant response rating (bamyardgrass; [15]): 0
Barnyardgrass plant response rating (bamyardgrass; [16]): 0
Corn plant response rating (corn; Rate 125 g/ha, Postemergence, scale 0 to 10, 0 no effect, 10 complete control): 0
S. Flatsedge plant response rating (smallflower flatsedge; [13]): 0
S. Flatsedge plant response rating (smallflower flatsedge; [14]): 0
S. Flatsedge plant response rating (smallflower flatsedge; [15]): 0
S. Flatsedge plant response rating (smallflower flatsedge; [16]): 0
Ducksalad plant response rating (duck salad; [13]): 0
Ducksalad plant response rating (duck salad; [14]): 0
Ducksalad plant response rating (duck salad; [15]): 0
Ducksalad plant response rating (duck salad; [16]): 0
Rice plant response rating (rice; [13]): 0
Rice plant response rating (rice; [14]): 0
Rice plant response rating (rice; [15]): 0
Rice plant response rating (rice; [16]): 0
